Results taken from patent US11766425B2, “Antibiotic combination therapies” (BIOVERSYS AG, priority 2019, dated 2023).
Where two headings read alike, the source gives them in different places.

Legend:
Assay type in all cases: cell-based, Acinetobacter baumannii
A. baumannii UNT238-1 = test: broth microdilution checkerboard MIC/synergy; details: ID-CA-MHB
Description: (§1) Checkerboards were performed according to the CLSI parameters used for microbroth dilution MIC5. CA-MHB, iron-depleted CA-MHB (ID-CA-MHB) or RPMI supplemented with 10% FCS medium were used as specified and ID-CA-MHB was prepared according to CLSI guidelines. […] FICI is calculated as follows: […]

A. baumannii IHMA690517 = test: broth microdilution checkerboard MIC/synergy; details: for MIC: Acinetobacter baumannii, IHMA690517, strain IHMA690517, antibiotic alone, read-out: MICs alone; for MICs combi: strain IHMA690517
Description: as §1

A. baumannii UNT087-1 = test: broth microdilution checkerboard MIC/synergy; details: for MIC: Acinetobacter baumannii, UNT0871, strain UNT087-1, antibiotic alone, read-out: MICs alone; for MICs combi: strain UNT087-1
Description: as §1

A. baumannii UNT191-1 = test: broth microdilution checkerboard MIC/synergy; details: for MIC: Acinetobacter baumannii, UNT1911, strain UNT191-1, antibiotic alone, read-out: MICs alone; for MICs combi: strain UNT191-1
Description: as §1

A. baumannii IHMA919656 = test: broth microdilution checkerboard MIC/synergy; details: for MICs combi: strain IHMA919656
Description: as §1

A. baumannii IHMA1013816 = test: broth microdilution checkerboard MIC/synergy; details: for MICs combi: strain IHMA1013816
Description: as §1

A. baumannii 402608-17 = test: broth microdilution checkerboard MIC/synergy; details: for MIC: Acinetobacter baumannii, 40260817, strain 402608-17, antibiotic alone, read-out: MICs alone; for MICs combi: strain 402608-17
Description: as §1

A. baumannii 401046-18 = test: broth microdilution checkerboard MIC/synergy; details: for MIC: Acinetobacter baumannii, 40104618, strain 401046-18, antibiotic alone, read-out: MICs alone; for MICs combi: strain 401046-18
Description: as §1

A. baumannii IHMA863866 = test: broth microdilution checkerboard MIC/synergy
Description: as §1

A. baumannii 402292-17 = test: broth microdilution checkerboard MIC/synergy; details: for MIC: Acinetobacter baumannii, 40229217, strain 402292-17, antibiotic alone, read-out: MICs alone; for MICs combi: strain 402292-17
Description: as §1

A. baumannii HUMC1 = test: broth microdilution checkerboard MIC/synergy; details: for MIC: Acinetobacter baumannii, HUMC1, read-out: MICs alone; for MICs combi: strain HUMC1
Description: as §1

A. baumannii UNT091-1 = test: broth microdilution checkerboard MIC/synergy; details: for MIC: Acinetobacter baumannii, UNT0911, strain UNT091-1, antibiotic alone, read-out: MICs alone
Description: as §1

A. baumannii IHMA867231 = test: broth microdilution checkerboard MIC/synergy; details: for MIC: Acinetobacter baumannii, IHMA867231, strain IHMA867231, antibiotic alone, read-out: MICs alone; for MICs combi: strain IHMA867231
Description: as §1

A. baumannii UNT239-1 = test: broth microdilution checkerboard MIC/synergy; details: for MICs combi: strain UNT239-1
Description: as §1

A. baumannii 401255-18 = test: broth microdilution checkerboard MIC/synergy; details: for MIC: Acinetobacter baumannii, 40125518, strain 401255-18, antibiotic alone, read-out: MICs alone; for MICs combi: strain 401255-18
Description: as §1

[1] = tested on: panel of MDR clinical isolates of A. baumannii
Description: as §1

[2] = tested on: A. baumannii LAC-4 strain; test: broth microdilution checkerboard MIC/synergy; details: for FICI / Interpretation: second antibiotic in combination with rifabutin, LAC-4; for MICs combi: strain LAC-4
Description: as §1
The checkerboards were performed in CA-MHB or ID-CA-MHB for cefiderocol.

[3] = rifabutin/cefiderocol checkerboard
[4] = rifabutin/cefiderocol in combination
[5] = rifabutin/cefiderocol checkerboard, ID-CA-MHB
[6] = rifabutin/cefiderocol in combination, ID-CA-MHB
[7] = rifampicin/colistin checkerboard
[8] = rifampicin/colistin in combination

CC(C)(O/N=C(\C(=O)N[C@@H]1C(=O)N2C(C(=O)[O-])=C(C[N+]3(CCNC(=O)c4ccc(O)c(O)c4Cl)CCCC3)CS[C@H]12)c1csc(N)n1)C(=O)O [Cefiderocol, cefiderocol]
MIC (A. baumannii UNT238-1; Acinetobacter baumannii, UNT2381, strain UNT238-1, antibiotic alone, rifabutin/cefiderocol checkerboard, read-out: MICs alone): 4 µg/mL
MICs combi (A. baumannii UNT238-1; strain UNT238-1, rifabutin/cefiderocol in combination): 1 mg/L
MIC (A. baumannii IHMA690517; [3]): 0.25 µg/mL
MICs combi (A. baumannii IHMA690517; [4]): 0.06 mg/L
MIC (A. baumannii UNT087-1; [3]): 0.5 µg/mL
MICs combi (A. baumannii UNT087-1; [4]): 0.125 mg/L
MIC (A. baumannii UNT191-1; [5]): 16 µg/mL
MICs combi (A. baumannii UNT191-1; [6]): 4 mg/L
MIC (A. baumannii IHMA919656; Acinetobacter baumannii, IHMA919656, strain IHMA919656, antibiotic alone, rifabutin/cefiderocol checkerboard, read-out: MICs alone): 0.125 µg/mL
MICs combi (A. baumannii IHMA919656; [4]): 0.03 mg/L
MIC (A. baumannii IHMA1013816; Acinetobacter baumannii, IHMA1013816, strain IHMA1013816, antibiotic alone, rifabutin/cefiderocol checkerboard, read-out: MICs alone): 0.06 µg/mL
MICs combi (A. baumannii IHMA1013816; [4]): 0.016 mg/L
MIC (A. baumannii 402608-17; [3]): 8 µg/mL
MICs combi (A. baumannii 402608-17; [4]): 2 mg/L
MIC (A. baumannii 401046-18; [5]): 128 µg/mL
MICs combi (A. baumannii 401046-18; [6]): 32 mg/L
MIC (A. baumannii IHMA863866; Acinetobacter baumannii, IHMA863866, read-out: MICs alone): 4 µg/mL
MICs combi (A. baumannii IHMA863866; strain IHMA863866, rifabutin/cefiderocol in combination): 1 mg/L
MIC (A. baumannii 402292-17; [3]): > 32 µg/mL
MICs combi (A. baumannii 402292-17; [4]): 8 mg/L
MIC (A. baumannii HUMC1): 2 µg/mL
MICs combi (A. baumannii HUMC1; [4]): 0.5 mg/L
MIC (A. baumannii UNT091-1; [3]): 4 µg/mL
MICs combi (A. baumannii UNT091-1; strain UNT091-1, rifabutin/cefiderocol in combination): 1 mg/L
MIC (A. baumannii IHMA867231; [3]): 1 µg/mL
MICs combi (A. baumannii IHMA867231; [4]): 0.25 mg/L
MIC (A. baumannii UNT239-1; Acinetobacter baumannii, UNT2391, read-out: MICs alone): 4 µg/mL
MICs combi (A. baumannii UNT239-1; [6]): 1 mg/L
MIC (A. baumannii 401255-18; [3]): 16 µg/mL
MICs combi (A. baumannii 401255-18; [4]): 4 mg/L
decrease in the MIC of cefiderocol ([1]; in combination with rifabutin, all A. baumannii strains tested (16 MDR isolates)): ≥ 4 fold
strains on which synergy was observed ([1]; rifabutin/cefiderocol, panel of strains): 100%
MIC ([2]; Acinetobacter baumannii, LAC4STRAIN, read-out: MICs alone): 1 µg/mL
FICI ([2]; ID-CA-MHB): 0.5
Interpretation ([2]; ID-CA-MHB): synergy (synergy (FICI≤0.5))
MICs combi [2, 6]: 0.25 mg/L

CO/N=C(\C(=O)N[C@@H]1C(=O)N2C(C(=O)O)=C(COC(C)=O)CS[C@H]12)c1csc(N)n1 [Cefotaxime, cefotaxime]
FICI ([2]; CA-MHB): 1.5
Interpretation ([2]; CA-MHB): indifferent (indifferent (FICI>0.50 and ≤4))

CN(C)[C@@H]1C(O)=C(C(N)=O)C(=O)[C@@]2(O)C(O)=C3C(=O)c4c(O)c(NC(=O)CN5CCCC5)cc(F)c4C[C@H]3C[C@@H]12 [Eravacycline, eravacycline]
FICI ([2]; CA-MHB): 1
Interpretation ([2]; CA-MHB): indifferent (indifferent (FICI>0.50 and ≤4))

C[C@@H](O)[C@H]1C(=O)N2C(C(=O)O)=C(S[C@@H]3CN[C@H](C(=O)N(C)C)C3)[C@H](C)[C@H]12 [Meropenem, meropenem]
FICI ([2]; CA-MHB): 1
Interpretation ([2]; CA-MHB): indifferent (indifferent (FICI>0.50 and ≤4))

CN(C)c1ccc(O)c2c1C[C@H]1C[C@H]3[C@H](N(C)C)C(O)=C(C(N)=O)C(=O)[C@@]3(O)C(O)=C1C2=O [Minocycline, minocycline]
FICI ([2]; CA-MHB): 1
Interpretation ([2]; CA-MHB): indifferent (indifferent (FICI>0.50 and ≤4))

CO[C@H]1/C=C/O[C@@]2(C)Oc3c(C)c(O)c4c(O)c(c(/C=N/N5CCN(C)CC5)c(O)c4c3C2=O)NC(=O)/C(C)=C\C=C\[C@H](C)[C@H](O)[C@@H](C)[C@@H](O)[C@@H](C)[C@H](OC(C)=O)[C@@H]1C [Rifampicin, rifampicin]
MIC (A. baumannii IHMA690517; [7]): 4 µg/mL
MICs combi (A. baumannii IHMA690517; [8]): 0.06 mg/L
MIC (A. baumannii UNT087-1; [7]): 4 µg/mL
MICs combi (A. baumannii UNT087-1; [8]): 4 mg/L
MIC (A. baumannii UNT191-1; [7]): 4 µg/mL
MICs combi (A. baumannii UNT191-1; [8]): 0.25 mg/L
MICs combi (A. baumannii IHMA919656; [8]): 0.03 mg/L
MICs combi (A. baumannii IHMA1013816; [8]): 0.06 mg/L
MIC (A. baumannii 402608-17; [7]): 512 µg/mL
MICs combi (A. baumannii 402608-17; [8]): 64 mg/L
MIC (A. baumannii 401046-18; [7]): 512 µg/mL
MICs combi (A. baumannii 401046-18; [8]): 64 mg/L
MIC (A. baumannii 402292-17; [7]): 512 µg/mL
MICs combi (A. baumannii 402292-17; [8]): 256 mg/L
MIC (A. baumannii HUMC1): 4 µg/mL
MICs combi (A. baumannii HUMC1; [8]): 1 mg/L
MIC (A. baumannii UNT091-1; [7]): 4 µg/mL
MIC (A. baumannii IHMA867231; [7]): 512 µg/mL
MICs combi (A. baumannii IHMA867231; [8]): 32 mg/L
MICs combi (A. baumannii UNT239-1; [8]): 0.25 mg/L
MIC (A. baumannii 401255-18; [7]): 512 µg/mL
MICs combi (A. baumannii 401255-18; [8]): 128 mg/L
rifampicin combination MICs ([1]; in combination with colistin, isolates with mutations in the rpoB gene): ≥ 32 mg/L
strains on which synergy was observed ([1]; rifampicin with colistin): 88%
MICs combi [2, 8]: 0.06 mg/L

NC[C@H]1O[C@H](O[C@H]2[C@H](O)[C@@H](O[C@H]3O[C@H](CO)[C@@H](O)[C@H](N)[C@H]3O)[C@H](N)C[C@@H]2N)[C@H](N)C[C@@H]1O [Tobramycin, tobramycin]
FICI ([2]; CA-MHB): 1.5
Interpretation ([2]; CA-MHB): indifferent (indifferent (FICI>0.50 and ≤4))
